According to paper PMC10952572, “Improved PIEZO1 agonism through 4‐benzoic acid modification of Yoda1” (British Journal of Pharmacology, 2023):

How the values were obtained:
human TRPC5 = target: T1, human TRPC5 (Homo sapiens, UniProt Q9UL62); assay: Intracellular Ca2+ measurement in hTRPC5-TREx cells; format: cell-based; conditions: 10 μM
T1 construct: expressed in transfected cells
T1 sequence (Q9UL62 1-973): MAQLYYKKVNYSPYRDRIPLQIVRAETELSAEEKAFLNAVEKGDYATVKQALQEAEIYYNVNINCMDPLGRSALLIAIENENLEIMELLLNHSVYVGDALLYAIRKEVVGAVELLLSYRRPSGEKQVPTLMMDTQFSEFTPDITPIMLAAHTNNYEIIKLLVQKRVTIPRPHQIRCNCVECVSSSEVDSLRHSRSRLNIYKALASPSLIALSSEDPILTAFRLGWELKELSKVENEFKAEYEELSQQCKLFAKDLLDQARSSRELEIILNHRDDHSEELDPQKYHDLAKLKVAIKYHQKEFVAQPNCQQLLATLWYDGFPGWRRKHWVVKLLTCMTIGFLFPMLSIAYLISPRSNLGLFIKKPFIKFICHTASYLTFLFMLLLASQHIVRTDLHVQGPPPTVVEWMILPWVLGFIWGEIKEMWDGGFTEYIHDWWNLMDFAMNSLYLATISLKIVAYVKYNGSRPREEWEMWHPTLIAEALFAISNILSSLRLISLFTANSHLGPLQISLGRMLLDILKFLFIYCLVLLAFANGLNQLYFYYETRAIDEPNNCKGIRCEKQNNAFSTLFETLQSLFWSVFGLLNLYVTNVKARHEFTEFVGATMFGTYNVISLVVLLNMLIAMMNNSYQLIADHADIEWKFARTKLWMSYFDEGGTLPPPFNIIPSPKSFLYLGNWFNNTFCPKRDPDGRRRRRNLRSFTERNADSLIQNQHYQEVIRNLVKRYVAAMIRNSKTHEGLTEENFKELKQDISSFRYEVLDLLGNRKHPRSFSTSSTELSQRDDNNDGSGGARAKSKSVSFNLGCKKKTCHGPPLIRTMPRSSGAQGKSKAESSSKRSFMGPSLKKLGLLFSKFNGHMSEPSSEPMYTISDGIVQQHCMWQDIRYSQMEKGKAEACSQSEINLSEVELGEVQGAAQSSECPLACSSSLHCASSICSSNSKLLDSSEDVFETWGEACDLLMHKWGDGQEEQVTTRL
Description: HEK T‐REx™ 293 cells stably expressing tetracycline‐regulated human TRPC5 have been described previously (Zeng et al., [2004]). For the TRPC5‐expressing cells, selection was achieved by including 5 μg·ml^−1 blasticidin and 400 μg·ml^−1 zeocin in the cell medium. To induce expression, cells were incubated with 1 μg·ml^−1 tetracycline for 24 h prior to experiments. These cells are referred to as hTRPC5‐TREx.
HEK 293‐TREx cells and their stably transfected derivatives or transiently transfected HEK 293 or HeLa cells were seeded at a density of 7.5 × 10^4 cells per well into poly‐D‐lysine‐coated 96‐well plates. The plates were either commercially pre‐coated with poly‐D‐lysine (Greiner Bio‐One #655946) or (Greiner Bio‐One #655090) were coated in‐house with 35 μl of a 10 μg·ml^−1 poly‐D‐lysine (Bio‐Techne, Cultrex # 3439‐100‐01) in sterile deionised water per well for at least 24 h and rinsed three times with 100 μl per well sterile D‐PBS before addition of cells. HUVECs were seeded into tissue culture‐treated 96‐well plates (Greiner Bio‐One #655090) at a density of either 2.5 × 10^4 cells 24 h before experimentation or 1.25 × 10^4 cells 48 h before experimentation. Cells were incubated with 2 μM Fura‐2‐AM (Molecular Probes™) in the presence of 0.01% (wt./vol.) pluronic F127 (Sigma‐Aldrich #P2443) in standard bath solution (SBS) for 1 h at 37°C. Cells were washed with SBS for 30 min at room temperature. Alternatively, if inhibitors were being tested, these were added at this time, immediately following a wash in SBS. (−)‐Englerin A (Akbulut et al., [2015]) was used in SBS containing 0.01% pluronic acid as a dispersing agent to minimise aggregation of compound. Unless otherwise stated, the final concentration of DMSO was 0.2% (vol./vol). […] Measurements were made at room temperature on a 96‐well fluorescence plate reader (FlexStation 3, Molecular Devices, Sunnyvale, CA, USA) controlled by SoftMax Pro software v7.0.3. […]

HeLa cells = assay: Intracellular Ca2+ measurement in HeLa cells with siRNA knockdown of PIEZO1/PIEZO2; format: cell-based, human; conditions: 10 μM; for Ca2+ response after PIEZO1 depletion / Ca2+ response after PIEZO2 depletion: HeLa cells; for Ca2+ response after PIEZO1 depletion: siPIEZO1; for Ca2+ response after PIEZO2 depletion: siPIEZO2
Description: Hela (ATCC Cat #CRM‐CCL‐2, RRID:CVCL_0030) and HEK 293 (ATCC Cat #CRL‐1573, RRID:CVCL_0045) cells were purchased from ATCC and maintained in DMEM supplemented with 10% heat‐inactivated fetal calf serum, 100 U·ml^−1 penicillin and 100 μg·ml^−1 streptomycin (Sigma‐Aldrich).
Cells were transfected using Opti‐MEM™ I Reduced Serum Medium (Thermo Fisher Scientific) and Lipofectamine 2000 (Thermo Fisher Scientific). For transfection of cells in six‐well plates, […] short‐interfering RNA (siRNA) (control siRNA [siCtrl]: Dharmacon ON‐TARGETplus Non‐targeting Control Pool, D‐001810‐10‐05; siRNA targeted to PIEZO2 expression [siPIEZO2]: Dharmacon ON‐TARGETplus SmartPool PIEZO2, L‐013925‐02‐0005; and PIEZO1: Sigma‐Aldrich, GCAAGUUCGUGCGCGGAUU[DT][DT]) and 3 μl of Lipofectamine 2000 complexed in 200 μl of Opti‐MEM were added to 0.8 ml cell culture medium per well. The culture medium was changed 4 h post transfection, and cells were used for experiments 48 h later.
HEK 293‐TREx cells and their stably transfected derivatives or transiently transfected HEK 293 or HeLa cells were seeded at a density of 7.5 × 10^4 cells per well into poly‐D‐lysine‐coated 96‐well plates. The plates were either commercially pre‐coated with poly‐D‐lysine (Greiner Bio‐One #655946) or (Greiner Bio‐One #655090) were coated in‐house with 35 μl of a 10 μg·ml^−1 poly‐D‐lysine (Bio‐Techne, Cultrex # 3439‐100‐01) in sterile deionised water per well for at least 24 h and rinsed three times with 100 μl per well sterile D‐PBS before addition of cells. HUVECs were seeded into tissue culture‐treated 96‐well plates (Greiner Bio‐One #655090) at a density of either 2.5 × 10^4 cells 24 h before experimentation or 1.25 × 10^4 cells 48 h before experimentation. Cells were incubated with 2 μM Fura‐2‐AM (Molecular Probes™) in the presence of 0.01% (wt./vol.) pluronic F127 (Sigma‐Aldrich #P2443) in standard bath solution (SBS) for 1 h at 37°C. Cells were washed with SBS for 30 min at room temperature. Alternatively, if inhibitors were being tested, these were added at this time, immediately following a wash in SBS. (−)‐Englerin A (Akbulut et al., [2015]) was used in SBS containing 0.01% pluronic acid as a dispersing agent to minimise aggregation of compound. Unless otherwise stated, the final concentration of DMSO was 0.2% (vol./vol). Working 2000× stock solutions of test compounds were freshly made in DMSO and diluted 1000‐fold in SBS during the 30 min SBS wash/inhibitor pre‐incubation period to obtain 2× solutions for injection. When testing the highest concentration of Yoda1, KC159 and KC289 (30 μM), the final DMSO concentration was 0.6% (vol./vol.). Measurements were made at room temperature on a 96‐well fluorescence plate reader (FlexStation 3, Molecular Devices, Sunnyvale, CA, USA) controlled by SoftMax Pro software v7.0.3. Recipient wells containing 80 μl SBS/0.2% (vol./vol.) DMSO vehicle or inhibitor compound received 80 μl 2× compound at an injection rate of 1 μl·s^−1, and the pipette introduced liquids from a height setting of 70 μl. No trituration was performed. For recordings using Fura‐2, the change in intracellular Ca was indicated as the ratio of Fura‐2 emission (510 nm) intensities at 340 and 380 nm excitation. Photomultipliers were set to medium sensitivity. SBS contained 130 mM NaCl, 5 mM KCl, 8 mM D‐glucose, 10 mM HEPES, 1.2 mM MgCl2 and 1.5 mM CaCl2, and the pH was adjusted to 7.4 with NaOH. The solution was filtered through a 0.2 μm bottle‐top filter prior to use and handled aseptically thereafter.

O=C(O)c1ccc(-c2nnc(SCc3c(Cl)cccc3Cl)s2)cc1 [KC159]
Ca2+ response in cells expressing TRPC5 in place of PIEZO1 (human TRPC5): fail to evoke responses
Ca2+ elevations in HeLa cells (HeLa cells): evoked Ca^2+ elevations
Ca2+ response after PIEZO1 depletion (HeLa cells): partly suppressed
Ca2+ response after PIEZO2 depletion (HeLa cells): partly suppressed

O=C([O-])c1ccc(-c2nnc(SCc3c(Cl)cccc3Cl)s2)cc1.[K+] [KC289]
Ca2+ response in cells expressing TRPC5 in place of PIEZO1 (human TRPC5): fail to evoke responses
Ca2+ elevations in HeLa cells (HeLa cells): evoked Ca^2+ elevations
Ca2+ response after PIEZO1 depletion (HeLa cells): partly suppressed
Ca2+ response after PIEZO2 depletion (HeLa cells): partly suppressed

Clc1cccc(Cl)c1CSc1nnc(-c2cnccn2)s1 [Yoda1, 2‐[5‐[[(2,6‐dichlorophenyl)methyl]thio]‐1,3,4‐thiadiazol‐2‐yl]pyrazine]
Ca2+ response in cells expressing TRPC5 in place of PIEZO1 (human TRPC5): fail to evoke responses
Ca2+ elevations in HeLa cells (HeLa cells): evoked Ca^2+ elevations
Ca2+ response after PIEZO1 depletion (HeLa cells): partly suppressed
Ca2+ response after PIEZO2 depletion (HeLa cells): partly suppressed
